# Assay results from patent publication US20050100983A1, “Cell-free methods for identifying compounds that affect toll-like receptor 9 (TLR9) signaling” (Coley Pharmaceutical GmbH, priority 2003, published 2005).
# Assays:
# [1] = target: T1, mTLR9ect (extracellular domain of murine TLR9 fused to human IgG1-Fc) (Mus musculus, UniProt Q9EQU3); test: SPR biosensor analysis of mTLR9ect binding to immobilized CpG-DNA
# T1 construct: mTLR9ect (aa 1-816); made in house
# T1 sequence (Q9EQU3 26-816): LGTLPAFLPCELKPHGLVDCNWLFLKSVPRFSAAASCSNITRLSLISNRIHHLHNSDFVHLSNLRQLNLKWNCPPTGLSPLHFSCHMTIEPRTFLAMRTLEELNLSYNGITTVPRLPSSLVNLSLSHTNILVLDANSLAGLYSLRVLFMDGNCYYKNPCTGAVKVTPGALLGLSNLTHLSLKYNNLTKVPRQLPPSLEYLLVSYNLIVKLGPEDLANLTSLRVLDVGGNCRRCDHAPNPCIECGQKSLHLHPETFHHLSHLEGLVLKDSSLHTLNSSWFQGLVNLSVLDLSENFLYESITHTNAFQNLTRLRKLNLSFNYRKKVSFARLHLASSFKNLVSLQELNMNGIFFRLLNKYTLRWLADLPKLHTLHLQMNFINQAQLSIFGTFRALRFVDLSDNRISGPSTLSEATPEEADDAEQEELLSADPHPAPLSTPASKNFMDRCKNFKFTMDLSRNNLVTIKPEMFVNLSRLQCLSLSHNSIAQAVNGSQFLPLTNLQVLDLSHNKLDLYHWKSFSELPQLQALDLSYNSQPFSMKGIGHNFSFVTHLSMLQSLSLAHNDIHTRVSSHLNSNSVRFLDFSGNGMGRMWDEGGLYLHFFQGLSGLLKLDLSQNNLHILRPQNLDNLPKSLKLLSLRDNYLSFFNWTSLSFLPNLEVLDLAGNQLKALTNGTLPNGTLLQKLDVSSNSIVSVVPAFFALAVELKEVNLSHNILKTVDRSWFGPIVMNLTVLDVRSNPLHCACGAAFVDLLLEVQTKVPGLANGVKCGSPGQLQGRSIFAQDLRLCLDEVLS
# Text: (§1) Protein. Recombinant fusion proteins consisting of the extracellular domain of Toll-like receptors mTLR9ect (aa 1-816), mTLR9ect-mut (see below) (aa 1-816), hTLR9ect (aa 1-815) and mTLR2ect (aa 1-587) fused to human IgG1-Fc were constructed by amplifying the corresponding extracellular domain and ligating the fragment in frame into a pcDNA3.1(−) (Invitrogen, Netherlands) vector containing the coding sequence for human IgG1-Fc. Fusion proteins were stably expressed in HEK 293 cells and purified from cell lysates by protein A affinity chromatography.
# (§2) SPR biosensor analysis. Real-time binding of TLR9 or TLR2 was measured by surface plasmon resonance biosensor technology using the BiaCore X system (Uppsala, Sweden). For analysis of TLR9 and TLR2 interaction, biotinylated CpG-DNA and non-CpG-DNA, or biotinylated Pam3CysK4 and PHCK4, respectively, were loaded in running buffer (50 mM MES, 150 mM NaCl, 1 mM MgCl2 at pH 6.5) on SA chips precoated with streptavidin (Biacore AB, Uppsala, Sweden). Non-CpG-DNA or PHCK4 (Wiesmuller K H et al. (1989) Vaccine 7:29-33) served as reference for CpG-DNA and Pam3CysK4 interaction (structure or sequence in Table 1). […] TLR proteins were introduced at 200 nM or as indicated in 40 μl running buffer at a flow rate of 10 μl/min. Binding was measured at 25° C. for 750 s (delay time 300 s). […] Sensorgrams were recorded and kinetic data were calculated by the BiaCore Evaluation program (Biacore, version 3.0.1). Regeneration of the chip was performed by injection of 10 μl 50 mM NaOH, 1 M NaCl and extensive re-equilibration.
# For detailed analysis of TLR9-CpG-DNA interaction, surface plasmon resonance (SPR) biosensor based technology was used with CpG- and non-CpG-DNA immobilized onto separate flow cells of a streptavidin-coated chip. Under these settings non-CpG-DNA served as reference for specific binding (see Methods). Binding of mTLR9ect to DNA was CpG-sequence-specific and increased in a dose-dependent manner. […] Using the 1:1 binding model of the BioEvaluation software as fitting algorithm and on the basis of four different mTLR9ect concentrations ranging from 50 to 300 nM, a dissociation constant (Kd) of 200 nM was obtained with low chi-squared residuals (4,76). […] Weber AN et al. (2003) Nat. Immunol. 4:794-800. Furthermore the concentration of CpG-DNA 1668 (SEQ ID NO:1) for half-maximal activation of murine TLR9 has been recently calculated as 70 nM which correlates well with the KD obtained here. Bauer S et al. (2001) Proc. Natl. Acad. Sci. U.S.A. 98:9237-9242. […] This difference in affinity correlates with the observed species-specific variance in CpG-motif recognition, as well as activation potential. Bauer S et al. (2001) Proc. Natl. Acad. Sci. U.S.A. 98:9237-9242.
# mTLR9ect = target: T2, mTLR9ect (Mus musculus, UniProt Q9EQU3); test: UV-crosslinking of mTLR9ect with 32P-labeled DNA and SDS-PAGE; format: binding, murine; conditions: SDS-PAGE, complex at 150 kDa
# T2 construct: mTLR9ect (aa 1-816); made in house
# T2 sequence (Q9EQU3 26-816): T1 sequence (Q9EQU3 26-816)
# Text: FIG. 1B is an image of an SDS-PAGE gel depicting purified proteins from FIG. 1A UV-crosslinked with ^32P-labeled CpG- or non-CpG-DNA, separated by SDS-PAGE, and autoradiographed. TLR9 and free DNA are highlighted.
# Bauer S et al. (2001) Proc. Natl. Acad. Sci. U.S.A. 98:9237-9242. To assess binding of TLR9 to CpG-DNA, a recombinant fusion protein consisting of the extracellular domain of murine TLR9 and human IgG 1-Fc (mTLR9ect) was constructed. The extracellular domain of murine TLR2 also fused to IgG1-Fc (mTLR2ect) served as control. Proteins were expressed in HEK 293 cells and purified via protein A affinity chromatography (FIG. 1A). Under denaturing and non-reducing conditions mTLR9ect and mTLR2ect are approximately 10% in a monomeric and 90% in a dimeric form. Dimerization of the proteins is probably mediated by the IgG 1-Fc fusion partner which forms disulfide bonds (FIG. 1A). Initially, binding of mTLR9ect to radiolabeled DNA was determined by UV-crosslinking and subsequent SDS-PAGE.
# human TLR9ect = target: T3, human TLR9ect (Homo sapiens, UniProt Q9NR96); test: SPR biosensor analysis of human TLR9ect binding to CpG-DNA 2006; conditions: non-CpG-DNA 2006GC as control
# T3 construct: hTLR9ect (aa 1-815); made in house
# T3 sequence (Q9NR96 26-815): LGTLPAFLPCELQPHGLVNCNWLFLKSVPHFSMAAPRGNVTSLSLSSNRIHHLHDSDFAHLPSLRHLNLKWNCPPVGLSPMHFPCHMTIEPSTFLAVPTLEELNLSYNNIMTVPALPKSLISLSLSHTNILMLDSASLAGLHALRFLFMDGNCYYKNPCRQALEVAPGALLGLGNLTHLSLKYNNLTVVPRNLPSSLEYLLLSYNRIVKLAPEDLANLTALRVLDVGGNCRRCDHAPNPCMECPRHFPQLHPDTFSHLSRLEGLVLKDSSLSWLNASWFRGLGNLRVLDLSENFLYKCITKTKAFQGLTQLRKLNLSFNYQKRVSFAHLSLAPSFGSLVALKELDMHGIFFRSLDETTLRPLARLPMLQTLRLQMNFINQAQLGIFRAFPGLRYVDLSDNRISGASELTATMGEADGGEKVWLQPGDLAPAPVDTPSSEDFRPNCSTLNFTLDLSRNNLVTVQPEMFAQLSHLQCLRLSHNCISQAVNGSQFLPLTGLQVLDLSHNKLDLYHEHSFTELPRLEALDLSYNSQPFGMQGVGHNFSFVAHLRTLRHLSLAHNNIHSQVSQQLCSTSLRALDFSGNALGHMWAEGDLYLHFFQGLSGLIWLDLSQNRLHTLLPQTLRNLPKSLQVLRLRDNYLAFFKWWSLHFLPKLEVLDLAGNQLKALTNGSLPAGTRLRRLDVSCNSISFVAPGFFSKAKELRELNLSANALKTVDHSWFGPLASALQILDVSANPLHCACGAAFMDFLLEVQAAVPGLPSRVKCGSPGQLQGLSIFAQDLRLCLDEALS
# Text: as §1
# SPR biosensor analysis. Real-time binding of TLR9 or TLR2 was measured by surface plasmon resonance biosensor technology using the BiaCore X system (Uppsala, Sweden). For analysis of TLR9 and TLR2 interaction, biotinylated CpG-DNA and non-CpG-DNA, or biotinylated Pam3CysK4 and PHCK4, respectively, were loaded in running buffer (50 mM MES, 150 mM NaCl, 1 mM MgCl2 at pH 6.5) on SA chips precoated with streptavidin (Biacore AB, Uppsala, Sweden). Non-CpG-DNA or PHCK4 (Wiesmuller K H et al. (1989) Vaccine 7:29-33) served as reference for CpG-DNA and Pam3CysK4 interaction (structure or sequence in Table 1). […] Binding was measured at 25° C. for 750 s (delay time 300 s). […] Sensorgrams were recorded and kinetic data were calculated by the BiaCore Evaluation program (Biacore, version 3.0.1). […]
# TLR9-CpG-DNA interaction = target: T4, TLR9-CpG-DNA interaction (Mus musculus, UniProt Q9EQU3); test: SPR biosensor analysis of inhibitors on TLR9-CpG-DNA interaction; format: binding, murine; conditions: SPR, 200 nM TLR9, immobilized CpG-DNA 1668
# T4 construct: mTLR9ect (aa 1-816); made in house
# T4 sequence (Q9EQU3 26-816): T1 sequence (Q9EQU3 26-816)
# Procedure: Biotinylated CpG-DNA 1668 (SEQ ID NO:1) and non-CpG-DNA 1668GC (SEQ ID NO:3) were immobilized on streptavidin sensor chip flow cells 1 and 2, respectively.
# FIG. 2B is a graph depicting SPR biosensor analysis of quinoquine (QC) on TLR9-PAMP interaction. Biotinylated CpG-DNA 1668 (SEQ ID NO:1) and non-CpG-DNA 1668GC (SEQ ID NO:3) were immobilized on streptavidin sensor chip flow cells 1 and 2, respectively. 200 nM TLR9 and indicated concentrations of quinoquine were injected and sensorgrams recorded.
# as §2
# murine TLR9 = test: NF-κB luciferase assay, HEK 293 cells transfected with murine TLR9; format: cell-based; conditions: TLR9-transfected HEK 293 cells, 1 μM CpG-DNA, inhibitor added 15 min prior to stimulation
# Procedure: Activation is expressed as fold induction compared to no stimulation. NF-κB luciferase assay. For monitoring transient NF-κB activation, 3×10^6 HEK 293 cells were electroporated at 200 volt and 950 μF with 20 ng of a NF-κB luciferase reporter plasmid (kindly provided by Patrick Baeuerle, Munich, Germany) and 1 μg mTLR2 (kindly provided by Tularik, Inc., South San Francisco, USA), mTLR9, or mTLR9-mut expression plasmid. Cells were seeded at 10^5 cells per well and after overnight culture stimulated with 1 μM phosphorothioated CpG-DNA 1668 (SEQ ID NO:1), 1 μM non-CpG-DNA 1668GC (SEQ ID NO:3), 1 μg/ml Pam[…][…] or 1 μg/ml PHCK4 for further 8 hours. […] Stimulated cells were lysed using reporter lysis buffer (Promega, Mannheim, Germany) and lysates were assayed for luciferase activity using a Berthold luminometer (Wildbad, Germany) according to the manufacturer's instruction.
compound,measurement,setting,value
"5′-TCCATGAGCTTCCTGATGCT-3′ (chemistry not given here) [non-CpG-DNA 1668GC, non-CpG control oligodeoxynucleotide]",release of bound mTLR9ect by free injected DNA,"[1]; competition, free DNA added in dissociation phase",did not lead to the release
same,effect of pre-incubation of mTLR9ect with DNA on binding to chip-immobilized CpG-DNA,[1]; pre-incubation prior to SPR analysis,no inhibitory effect
same,binding of mTLR9ect to radiolabeled DNA,mTLR9ect,bound only weakly
5′-TCGTCGTTTTGTCGTTTTGTCGTT-3′ [CpG-DNA 2006],interaction with human TLR9ect,human TLR9ect,specifically interacted
CO/C1=C\C(C)=C\[C@@H](C)[C@@H](O)[C@@H](C)C/C(C)=C/C=C/[C@H](OC)[C@@H]([C@@H](C)[C@@H](O)[C@H](C)[C@@]2(O)C[C@@H](O)[C@H](C)[C@@H](C(C)C)O2)OC1=O [bafilomycin A1],inhibition of binding of TLR9 to CpG-DNA,TLR9-CpG-DNA interaction,did not influence
same,inhibition of TLR9-driven NF-κB activation,murine TLR9,inhibited cell activation
